Each compound was assayed on purified polypeptide (carbonyl reductase) from the Brevundimonas diminuta NBRC 12697 strain (assay: Substrate specificity of purified polypeptide: reducing activity against carbonyl compounds (NADH decrease at 340 nm)). Details: substrate 2 mM, NADH 0.167 mM, 100 mM phosphate buffer pH 6.5, 0.4% (v/v) DMSO, 30° C., 3 minutes; activity against ethyl N-Boc-2-amino-3-cyclohexyl-3-oxopropionate taken as 100%.
Format: biochemical

Structure (SMILES) | relative activity [%]
O=C(c1ccccc1)C(F)(F)F [2,2,2-trifluoroacetophenone] | 42277
O=C(CCl)c1cccc(Cl)c1 [2,3′-dichloroacetophenone] | 12719
CC(=O)c1ccco1 [2-acetylfuran] | 164
O=C(CCl)c1ccccc1 [2-chloroacetophenone] | 12789
CCCCC(C)=O [2-hexanone] | 1540
CC(C=O)c1ccccc1 (centres unmarked) [2-phenylpropionaldehyde] | 621
CC(=O)c1ccncc1 [4-acetylpyrridine] | 1149
CCOC(=O)C(Cl)C(=O)c1ccccc1 (centres unmarked) [Ethyl 2-chloro-3-oxo-3-phenylpropionate] | 1139
CCOC(=O)C(Cl)C(C)=O (centres unmarked) [Ethyl 2-chloroacetoacetate] | 7264
CCOC(=O)CC(=O)CCl [Ethyl 4-chloroacetoacetate] | 533470
CCOC(=O)C(=O)c1ccccc1 [Ethyl benzoylformate] | 12198
COC(=O)CC(C)=O [Methyl acetoacetate] | 1095
CC(=O)c1cccc(Cl)c1 [m-chloroacetophenone] | 4368
O=Cc1cccc(Cl)c1 [m-chlorobenzaldehyde] | 2138
CCCCCC=O [n-hexylaldehyde] | 2160
CC(=O)c1ccccc1Cl [o-chloroacetophenone] | 350
O=Cc1ccccc1Cl [o-chlorobenzaldehyde] | 1219
CC(=O)c1ccc(Cl)cc1 [p-chloroacetophenone] | 534
O=Cc1ccc(Cl)cc1 [p-chlorobenzaldehyde] | 445

Further lines, results first:

relative activity [%] | Structure (SMILES)
425 | CCOC(=O)C(C)C(C)=O (centres unmarked) [Ethyl 2-methylacetoacetate]
199 | CCOC(=O)C1CCCC1=O (centres unmarked) [Ethyl 2-oxocyclopentanecarboxylate]
6046 | CCCC(=O)C(=O)OCC [Ethyl 2-oxopentanoate]
100 | CCOC(=O)C(NC(=O)OC(C)(C)C)C(=O)C1CCCCC1 (centres unmarked) [Ethyl N-Boc-2-amino-3-cyclohexyl-3-oxopropionate]
5625 | COC(=O)C(C)=O [Methyl pyruvate]
273 | CC(=O)CC(C)=O [acetylacetone]
4737 | CC12CCC(C(=O)C1=O)C2(C)C (centres unmarked) [camphorquinone]
4830 | CC(=O)C(C)=O [diacetyl]
248 | CC(=O)C=O [methylglyoxal]
156 | O=C1CCSC1 [tetrahydrothiophen-3-one]

— patent publication US8304216B2, “Method for production of erythro-or threo-2-amino-3-hydroxypropionic acid ester, novel carbonyl reductase, gene for the reductase, vector, transformant, and method for production of optically active alcohol using those” (Kaneka Corporation, priority 2006, dated 2012)
